Assay results from patent publication US8541670B2, “Compositions and methods for inhibiting tumor cell growth” (priority 2007, dated 2013).
One block for each compound: values may come before it. Where no end group is shown, it is not given here.

What was measured:
AKT [1] = test: AKT activity in cultured neurons treated with PKA inhibitor or activator; type: cell-based
Procedure: To evaluate the significance of the AKT-PKAc interaction, kinase inhibitors were employed. […] Thus, cultured neurons were treated with the selective PKA inhibitor, H-89, and the potent PKA activator, forskolin, and AKT activity was analyzed.

N2a cells [2] = test: Trypan blue staining, live and dead cell count; type: cell-based
From the text: Therefore, in addition to capturing live images, cells were stained with trypan blue at different time intervals following treatment with ZaTa and counted by a light microscope using a hemocytometer.

AKT [3] = target: T1, AKT (Homo sapiens, UniProt P31749); test: Screen of PKAc peptide library for effect on catalytic activity of AKT; type: biochemical; conditions: single peptide
T1 construct: purchased Upstate Biotechnology
T1 sequence (P31749 whole entry): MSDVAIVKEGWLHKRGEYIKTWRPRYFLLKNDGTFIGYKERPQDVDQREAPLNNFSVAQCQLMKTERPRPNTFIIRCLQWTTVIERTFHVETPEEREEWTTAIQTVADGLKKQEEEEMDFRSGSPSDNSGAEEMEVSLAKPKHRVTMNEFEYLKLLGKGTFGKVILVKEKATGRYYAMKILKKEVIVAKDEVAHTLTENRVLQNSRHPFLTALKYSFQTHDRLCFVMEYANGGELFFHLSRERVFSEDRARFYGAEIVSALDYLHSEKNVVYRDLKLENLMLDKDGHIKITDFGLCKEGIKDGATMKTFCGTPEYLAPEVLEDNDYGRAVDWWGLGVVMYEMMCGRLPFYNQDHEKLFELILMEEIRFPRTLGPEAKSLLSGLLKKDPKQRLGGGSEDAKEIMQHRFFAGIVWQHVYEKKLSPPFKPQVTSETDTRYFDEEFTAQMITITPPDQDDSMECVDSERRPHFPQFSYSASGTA
From the text: Unlike PKAc and protein kinase C (PKC) for which potent inhibitor peptides are readily available and widely used, inhibitors of AKT are generally lacking (Brazil, et al. (2004) supra). […] Moreover, optimal substrate motifs for AKT have been modified to design AKT inhibitors (Obata, et al. (2000) J. Biol. Chem. 275:36108-36115). Because the full-length PKAc protein inhibited the catalytic activity of AKT, a peptide library based on the human (GENBANK Accession No. NP_002721; SEQ ID NO:1) and bovine (GENBANK Accession No. CAA47627; SEQ ID NO:2) PKAc protein sequences was designed and synthesized. This library contained 96 overlapping peptides (Table 1), covering the full-length protein sequence of human and bovine PKAc from the N- to C-terminus. The library was extensively screened to identify fragments of PKAc that mediated the inhibitory effect of PKAc toward AKT.
These peptides included peptide 49 (SEQ ID NO:56), 53 (SEQ ID NO:60), 62 (SEQ ID NO:69), 63 (SEQ ID NO:70) and 64 (SEQ ID NO:71). Combinations of consecutive overlapping peptide fragments were also assayed for an effect on the catalytic activity of AKT. A significant inhibitory effect was also observed when peptides 25 through 36 were combined (i.e., SEQ ID NOs:32-43), peptides 37 through 48 were combined (i.e., SEQ ID NOs:44-55), peptides 49 through 60 were combined (i.e., SEQ ID NOs:56-67), and peptides 61 through 72 were combined (i.e., SEQ ID NOs:68-79).

AKT1 = target: T2, AKT1 (Homo sapiens, UniProt P31749); test: AKT1 radioactive in vitro kinase assay (32P incorporation into Ser-21 GSK-3 substrate peptide); type: biochemical; conditions: compared with ZaTa
T2 construct: purchased Upstate Biotechnology
T2 sequence (P31749 whole entry): as above
Procedure: AKT1 catalytic activity was determined by measuring the incorporation of −^32P into Ser-21 glycogen synthase kinase 3[…] (GSK-3[…]) substrate peptide. Histogram bars represent the number of −^32P counts per minute (CPM). Reactions were carried out in the presence of different concentrations of the ZaTa peptide (SEQ ID NO:60), as well as a control peptide (SEQ ID NO:59) which shares 11 out of 17 amino acids in common with the N-terminus of the ZaTa peptide.
Of particular interest with regard to inhibitory activity toward AKT was peptide […](SEQ ID NO:60) which flanked the Thr-197 phosphorylation site of PKAc. […] Furthermore, the inhibitory effect of ZaTa peptide was compared with an adjacent peptide ([…] SEQ ID NO:59), a peptide that overlaps with the 11 N-terminal amino acid residues of the ZaTa peptide and carries the Thr-197 phosphorylation site. In this assay, the level of incorporation of −^32 P into Ser-21 GSK-3[…] substrate peptide was used as the measure of AKT1 in vitro catalytic activity.
For non-radioactive kinase assays, typically 25 ng of active AKT1 or PKAc (Upstate Biotechnology) was used in a kinase assay reaction buffer (20 mM MOPS, pH 7.2, 25 mM […]-glycerophosphate, 5 mM EGTA, 1 mM Na3VO4, 1 mM dithiothreitol, 75 mM MgCl2, and 0.5 mM ATP) in the presence of either 1 μL of Ser-9 GSK-3 GST fusion protein (Cell Signaling), or recombinant DARPP-32 (10 μg). For the radioactive kinase assays, typically 25 ng of kinase was added to the kinase assays reaction buffer (20 mM MOPS, pH 7.2, 25 mM […]-glycerophosphate, 5 mM EGTA, 1 mM Na3VO4, 1 mM dithiothreitol) containing 30 μM of dephosphorylated Ser-21 GSK-3 substrate peptide (Upstate Biotechnology) in the presence of different concentrations of inhibitor. Reactions were initiated by adding [−^32P] ATP (10 μCi/reaction) which was diluted in the reaction buffer, plus 500 μM cold ATP and 75 mM MgCl2. Kinase reactions were incubated 30° C. for 10-20 minutes. A 5 μL aliquot of the reaction was transferred to phosphocellulose paper, washed for 30 minutes with dH2O, and CPM of samples read in scintillation counter.

olfactory bulb cells = test: In vivo TUNEL in olfactory bulb after repeated intranasal delivery; set-up: species or system C57BL/6 mice; conditions: repeated intranasal treatment for three days
From the text: To confirm the apoptotic inducing effect of ZaTa in vivo, ZaTa was delivered to the mouse brain via the nasal cavity, a minimally invasive procedure compared to the stereotactic surgery. Intranasal delivery of compounds into the brain is an efficient and effective way for local delivery of compounds, without the need for passing the blood brain barriers, the major obstacle for studying the effect of different inhibitors/activators in CNS (Vyas, et al. (2005) Curr. Drug Deliv. 2:165-175; Hrafnkelsdottir, et al. (2005) Biol. Pharm. Bull. 28:1038-1042). […] This was visualized by double labeling of the brain sections with fluorescent TUNEL and a nuclear marker.
Depending on the intended use, a pharmaceutical composition of the invention can be administered by any suitable means, including parenteral injection (such as intraperitoneal, subcutaneous, intratumoral or intramuscular injection), orally or by topical application (e.g., transdermal or via a mucosal surface). By pharmaceutically acceptable formulation is meant, a composition or formulation that allows for the effective distribution of the nucleic acid molecules of the instant invention in the physical location most suitable for their desired activity. […]

N2a cells [4] = test: MTT cell proliferation assay; type: cell-based; conditions: 10 μM, 48-hour treatment (FIG. 3, series 1)
Procedure: In histogram series 2, treatments were removed after 24 hours and cells were incubated for another 24 hours without treatment. […] Mitochondrial activity (reflecting cellular growth and viability) in the presence of ZaTa and ZaTa variants (ZaTa T10D, ZaTa T8D, ZaTa T14R, and ZaTa Y17T) was evaluated by measuring the optical density (“OD”) at 490 nm on a plate reader. ZaTa T10D refers to a ZaTa polypeptide variant in which the Threonine (T) at position 10 of SEQ ID NO: 60 is substituted by an Aspartic Acid (D). ZaTa T8D refers to a ZaTa polypeptide variant in which the Threonine (T) at position 8 of SEQ ID NO: 60 is substituted by an Aspartic Acid (D). ZaTa T14R refers to a ZaTa polypeptide variant in which the Threonine (T) at position 14 of SEQ ID NO: 60 is substituted by an Arginine (R). ZaTa Y17T refers to a ZaTa polypeptide variant in which the Tyrosine (Y) at position 17 of SEQ ID NO: 60 is substituted by an Threonine (T).
AKT affects a network that positively regulates G1/S cell cycle progression through several mechanisms that involve the expression and subcellular localization of the CDK inhibitor p27^Kip1 (Blain and Massague (2002) Nat. Med. 8:1076-1078; Liang, et al. (2002) supra; Shin, et al. (2002) supra; Viglietto, et al. (2002) supra). Based on these studies, the effect of ZaTa peptide on cell proliferation was assessed. […] Capturing live images of cultured N2a cells in the presence of different concentrations of the ZaTa peptide confirmed an obvious reduction in the number of dividing cells.
Based on the importance of the C-terminal arm of ZaTa for its inhibitory action on AKT, it was determined whether the free hydroxyl groups on residues Thr-8, Thr-10 (equivalent to Thr-197 in full-length PKAc), Thr-14 and Tyr-17 were important for the biological activity of this peptide. Mutants of ZaTa peptide were synthesized by replacing Thr-8 or Thr-10 residues with Asp (ZaTa^T8D and ZaTa^T10D, respectively) as an amino acid with a negatively charged side chain. Mutants of ZaTa with the hydrophilic positively charged amino acid Arg at either position Thr-14 or Tyr-17 (ZaTa^T14R and ZaTa^Y17R, respectively) were also synthesized. […] The inhibitory effect of ZaTa peptide on cell proliferation was reversible, to a large extent, after the removal of ZaTa treatment (FIG. 3, histogram series 2).
Cells (5×10^3) were incubated in 96-well plates in the presence of different concentrations of the ZaTa peptide, control peptide or DMSO as vehicle. Media was removed at different time intervals and replaced with media containing MTT (5 mg/mL), and incubated for one hour at 37° C. […] The activity of the mitochondria, reflecting cellular growth and viability, was evaluated by measuring the optical density at 490 nm on a plate reader.

[5] = counted at time points from 12 to 72 hours

Compound: O=S(=O)(NCCNC/C=C/c1ccc(Br)cc1)c1cccc2cnccc12 [Peptide H-89]
activity of AKT, phosphorylation level at Thr-308 and Ser-473 (AKT [1]): dose-dependent increase

Compound: AKRVKGRDWTLCGTPEY [ZaTa^T8D]
increase in the number of dead cells (N2a cells [2]; [5]): not seen

Compound: AKRVKGRTWDLCGTPEY [ZaTa^T10D]
increase in the number of dead cells (N2a cells [2]; [5]): not seen

Compound: AKRVKGRTWTLCGRPEY [ZaTa^T14R]
increase in the number of dead cells (N2a cells [2]; only after 72 hours): significant increase in the number of dead cells

Compound: ZaTa^Y17R: ZaTa mutant with Arg at position Tyr-17 (AKRVKGRTWTLCGTPER; Peptide_SEQ ID NO:60)
increase in the number of dead cells (N2a cells [2]; only after 72 hours): significant increase in the number of dead cells | effect of mutation on inhibition of cell proliferation relative to ZaTa (N2a cells [4]): considerably augmented ZaTa activity

Further lines, with some results ahead:

inhibitory effect toward AKT, individual library peptides (AKT [3]): significant inhibitory effects
Compound: D-Q-Q-G-Y-I-Q-V-T-D-F-G-F-A-K (DQQGYIQVTDFGFAK; Peptide_SEQ ID NO:56) [Peptide 49]

inhibitory effect toward AKT, individual library peptides (AKT [3]): significant inhibitory effects
Compound: G-V-L-I-Y-E-M-A-A-G-Y-P-P-F-F (GVLIYEMAAGYPPFF; Peptide_SEQ ID NO:70) [Peptide 63]

inhibition of AKT1 catalytic activity (AKT1): not able to inhibit AKT1
Compound: GFAKRVKGRTWTL [control peptide, peptide overlapping the 11 N-terminal residues of ZaTa, reference compound]
number of apoptotic cells in olfactory bulb (olfactory bulb cells): no change in the number of apoptotic cells

inhibitory effect toward AKT, individual library peptides (AKT [3]): significant inhibitory effects
Compound: W-A-L-G-V-L-I-Y-E-M-A-A-G-Y (WALGVLIYEMAAGY; Peptide_SEQ ID NO:69) [Peptide 62]

inhibitory effect toward AKT, individual library peptides (AKT [3]): significant inhibitory effects
Compound: Y-E-M-A-A-G-Y-P-P-F-F-A (YEMAAGYPPFFA; Peptide_SEQ ID NO:71) [Peptide 64]
